{
  "source": "PubChem BioAssay AID466",
  "about": "(The Scripps Research Institute Molecular Screening Center, 2006)",
  "note": "Activity calls are given as the source filed them. No rule for the calls is given here.",
  "data": [
    {"biological_target": "Sphingosine 1-phosphate receptor 1 (Homo sapiens) (UniProt P21453)", "sequence (P21453 whole entry, looked up)": "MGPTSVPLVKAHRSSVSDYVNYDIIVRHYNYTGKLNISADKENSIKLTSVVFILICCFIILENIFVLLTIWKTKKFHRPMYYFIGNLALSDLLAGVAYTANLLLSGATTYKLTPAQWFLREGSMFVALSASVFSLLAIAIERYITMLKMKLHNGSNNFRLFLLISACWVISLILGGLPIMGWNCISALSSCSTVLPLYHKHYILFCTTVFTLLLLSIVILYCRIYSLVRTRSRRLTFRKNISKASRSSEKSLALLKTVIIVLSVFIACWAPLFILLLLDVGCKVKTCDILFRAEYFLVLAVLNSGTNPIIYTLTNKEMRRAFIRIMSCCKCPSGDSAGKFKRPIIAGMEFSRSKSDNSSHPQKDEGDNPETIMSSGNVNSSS", "assay": "potentiators of S1P1 agonist response, dose response, cell-based, potentiator mode, 60K MLSMR set (AID 466)", "settings": "S1P1 cell assay, potentiation of agonist response", "values": [
      {"smiles": "COc1ccc(N2C(=O)CC(Sc3ncn[nH]3)C2=O)c(OC)c1", "note": "(stereo not given)", "EC50": "inactive"},
      {"smiles": "CC1(C)CC(=O)C(C=Nc2ccc3[nH]ncc3c2)=C(O)C1", "EC50": "6.01 µM"},
      {"smiles": "CCOc1ccc(C(C)=O)cc1N1C(=O)C2C3C=CC(O3)C2C1=O", "note": "(stereo not given)", "EC50": "inactive"},
      {"smiles": "c1ccc2c(c1)CCN(c1ncnc3c1[nH]c1ccccc13)C2", "EC50": "1.18 µM"},
      {"smiles": "CCOC(=O)c1cccc2c1-c1ccccc1/C2=N/O", "EC50": "inactive"},
      {"smiles": "Cc1ccc2[nH]c3c(N4CCCCCC4)ncnc3c2c1", "EC50": "4.14 µM"},
      {"smiles": "CNc1oc(-c2ccc(OCc3ccccc3)cc2)nc1C#N", "EC50": "3.24 µM"},
      {"smiles": "C/C(N)=C(/C#N)C(=O)CSc1nnc(SCc2ccc(Cl)cc2)s1", "EC50": "9.63 µM"},
      {"smiles": "COc1ccc(N=c2scc(-c3ccc(S(=O)(=O)N4CCOCC4)cc3)n2CCCO)cc1", "EC50": "inactive"},
      {"smiles": "COc1ccc(/C(O)=C2/C(=O)C(=O)N(CC3CCCO3)C2c2cccc(OC)c2)cc1", "note": "(stereo not given)", "EC50": "> 95 µM (inactive)"},
      {"smiles": "O=C(C1CCN(S(=O)(=O)c2cccc3cccnc23)CC1)N1CCN(c2ccc(Cl)cc2)CC1", "EC50": "inactive"},
      {"smiles": "O=C1C2C3C=CC(CO)(O3)C2C(=O)N1c1ccccc1-c1ccccc1", "note": "(stereo not given)", "EC50": "6.82 µM"},
      {"smiles": "Cc1cc(N2CCOCC2)nc(NCc2ccccc2)n1", "EC50": "inactive"},
      {"smiles": "CC(=O)Oc1ccc(N2C(=O)C3C(C2=O)C2(C)C=CC3(C)O2)cc1", "note": "(stereo not given)", "EC50": "inactive"},
      {"smiles": "COc1ccc(/C=N/O)cc1COc1ccc(NC(C)=O)cc1", "EC50": "> 95 µM (inactive)"},
      {"smiles": "CC1=C(C(=O)OCc2ccc3c(c2)OCO3)C(c2ccccc2)NC(=O)N1", "note": "(stereo not given)", "EC50": "3.42 µM"},
      {"smiles": "CCCCc1ccc(C2C(C#N)=C(N)SC(N)=C2C#N)s1", "EC50": "inactive"},
      {"smiles": "CC(C)Cn1c(N)c(C(=O)CSc2ccc3c(c2)OCCO3)c(=O)n(C)c1=O", "EC50": "inactive"},
      {"smiles": "Cc1ccc(NC(=O)c2cc(-c3ccco3)on2)cc1C", "EC50": "5.02 µM"},
      {"smiles": "CCC(=NCCOc1ccc(Cl)cc1)c1c(O)n(C)c(=O)n(C)c1=O", "EC50": "5.34 µM"},
      {"smiles": "CCOC(=O)C1CCN(c2ncnc3c2oc2ccccc23)CC1", "EC50": "inactive"},
      {"smiles": "CCC(=NC(C)c1ccccc1)c1c(O)n(C)c(=O)n(C)c1=O", "note": "(stereo not given)", "EC50": "inactive"},
      {"smiles": "CC(=O)c1ccc(NC(=O)N2CCN(c3cccc(Cl)c3)CC2)cc1", "EC50": "9.84 µM"},
      {"smiles": "CC(C)c1ccc2oc(-c3cc(N)ccc3O)nc2c1", "EC50": "9.39 µM"},
      {"smiles": "COC(=O)CC1SC(=O)NC1=Nc1ccccc1", "note": "(stereo not given)", "EC50": "> 95 µM (inactive)"},
      {"smiles": "Cc1[nH]nc2c1C1(C(=O)N(Cc3ccc(Cl)cc3)c3ccccc31)C(C#N)=C(N)O2", "note": "(stereo not given)", "EC50": "inactive"},
      {"smiles": "CCC(=NCc1ccc2c(c1)OCO2)c1c(O)n(C2CCCCC2)c(=O)[nH]c1=O", "EC50": "8.66 µM"},
      {"smiles": "FC(F)(F)c1ccc(N2CCN(c3cc(-c4ccccc4)nc4ncnn34)CC2)nc1", "EC50": "inactive"},
      {"smiles": "NC(=O)c1ccc(OCC(F)(F)C(F)(F)C(F)(F)C(F)(F)C(F)(F)C(F)F)cc1", "EC50": "7.96 µM"},
      {"smiles": "Cn1nc(CC(=O)Nc2ccc3c(c2)OCCO3)c2ccccc2c1=O", "EC50": "5.94 µM"},
      {"smiles": "C/C(N)=C(/C#N)C(=O)CSc1nc2cc(Cl)ccc2s1", "EC50": "inactive"},
      {"smiles": "CC(C)c1ccc(OCc2nc(-c3ccccn3)no2)c(Br)c1", "EC50": "4.43 µM"},
      {"smiles": "Cc1nn(Cc2ccc(Cl)c(Cl)c2)c(C)c1NC(=O)c1cc(-c2ccco2)on1", "EC50": "5.57 µM"},
      {"smiles": "Cc1nn(Cc2ccc(Cl)c(Cl)c2)c(C)c1NC(=O)c1cc(C2CC2)on1", "EC50": "inactive"},
      {"smiles": "CC1=C(C(=O)OCc2ccc3c(c2)OCO3)C(c2ccc(F)cc2)NC(=O)N1", "note": "(stereo not given)", "EC50": "0.631 µM"}
    ]}
  ]
}
